The text below walks through data of patent US20180133211A1, “METHODS AND MATERIALS FOR PROMOTING BONE FORMATION” (Mayo Foundation for Medical Education and Research, priority 2015, published 2018).

Data set [1] has as its system female C57BL/6 mice. The experiment in a line: microCT of femur after 5 weeks of daily GSK126 (in vivo Ezh2 inhibition). Also on record: species or system mouse. The conditions noted are these: for Ct. TV: cortical bone; for Ct. TV / Ct. Ar / Ct. BV / Ct. Mat.M.Dn / Ct. Th / Ec. Ar / Ps.Ar: femoral midshaft; for Ct. TV / Tb.N / Tb.Sp / Tb.Th / Ct. Ar / Ct. BV / Ct. Mat.M.Dn / Ct. Th / Ec. Ar / Ps.Ar: 5 weeks, mean; for Tb.N / Tb.Sp / Tb.Th: distal femur metaphysis. As to the method: Female C57BL/6 mice (Harlan Laboratories) were maintained on a 12-hour light/12-hour dark cycle and were permitted ad libitum access to food and water. For efficacy studies, 6-week old mice received daily intraperitoneal (IP) injections of GSK126 at 15 mg/kg, 50 mg/kg, or vehicle (DMSO) in 20% Captisol adjusted to pH 4-4.5 with IN acetic acid (McCabe et al., Nature, 492:108-112 (2012)) for 5 weeks.
The dosage, delivery schedule, and administration route were similar to those described elsewhere (McCabe et al., Nature, 492:108-112 (2012)). Animals were weighed daily. To label mineralizing bone surfaces, mice received subcutaneous injections of calcein (10 mg/kg) 5 days and 24 hours before euthanasia.
The quantitative analysis of the femoral metaphysis was performed using a vivaCT 40 scanner (SCANCO Medical AG) with the following parameters: E=55 kVp, 1=145 μA, integration time=300 ms. A 10.5 μm voxel size using a threshold of 220 was applied to all scans at high resolution. Using two-dimensional data from scanned slices, 3D analysis was generated and used to calculate morphometric parameters defining trabecular bone mass and micro-architecture, including Bone Volume/Tissue volume (BV/TV), trabecular number (Tb.N.), trabecular thickness (Tb.Th.), trabecular spacing (Tb.Sp.), and the structure model index (SMI), an indicator of plate-like versus rod-like trabecular architecture.

For data set [2], the system named is H3K27me3 marks in MC3T3 cells. Kind of data set: H3K27me3 ChIPSeq in MC3T3 cells. Type of data set: cell-based, mouse. As to conditions: MC3T3, 5 μM GSK126, 24 hours. The method, then: MC3T3 (10,000 cells/cm^2) were plated in 10 cm plates in maintenance medium. Two days later, 5 μM GSK126 or vehicle were added to the cells in osteogenic medium. Twenty four hours later, cells were harvested by trypsin, and a chromatin immunoprecipitation assay (ChIP) was performed as described elsewhere (Dudakovic et al., J. Biol. Chem., 288:28783-28791 (2013)) using H3K27Me3 (17-622, Lot 2213948, Millipore) and IgG (PP64B, Lot 2056666A, Millipore) antibodies.
Sequencing libraries were prepared and massively parallel high throughput sequencing was performed on Illumina HiSeq2000 system. The alignment, quality assessment, peak calling, and visualization were performed with the HiChIP analysis pipeline (Yan et al., BMC Bioinformatics, 15:280 (2014)). Briefly, the 50 base-pair reads were aligned to the mm10 reference genome using Burrows-Wheeler Aligner. Duplicates were marked with Picard (http://broadinstitute.github.io/picard), and read-pairs without a unique alignment were filtered out using SAMTools (Li et al., Bioinformatics, 25:2078-2079 (2009)). Duplicates were filtered out using a custom script, and pairs with one or both ends mapped uniquely were retained. Enriched regions were identified using SICER (Zang et al., Bioinformatics, 25:1952-1958 (2009)).

The subject of data set [3] is BMSCs. Kind of data set: RT-qPCR mRNA expression. It counts as cell-based, mouse. As to the method:
Mouse bone marrow mesenchymal stem cells were isolated from aseptically dissected long bones of 6-week old C57BL/6 mice (Himberg, Austria). The marrow cavities were flushed with sterile medium using a 25-gauge needle, and the culture was established in α-MEM supplemented with 10% FCS and […]. After 48 hours of culture at 5% CO2 and 37° C., the non-adherent cells were removed by gentle rinsing with PBS. At confluence, cells were harvested and seeded at a density of 3,000/cm^2 for cell experiments. […]
Total RNA was extracted using the SV Total RNA Isolation kit (Promega) following the supplier's instructions. cDNA was synthesized from about 0.5 μg RNA using the First Strand cDNA Synthesis kit (Roche) as described by the supplier. The resulting cDNAs were subjected to quantitative PCR amplification with a real-time cycler using the QUANTITECT™ SYBR® Green PCR Kit (Qiagen, Hilden, Germany) for the genes Alpl, Fas, Lox, Tet1, Tet2, and TAQMAN® Gene expression Master Mix (Applied Biosystems, Foster City, Calif., USA) for measuring Runx2, Bglap2, Colla1, Tnfsf11, and 18S rRNA expression (for primers, see Table 1). […] All RT-qPCR assays were performed in triplicate, and expression was evaluated using the comparative quantification method (Pfaffl, Nucleic Acids Res., 29:e45 (2001)).
(In general: In qPCR the cycle at which signal appears reflects the starting amount.)

Data set [4] is described as follows: Tolerability of DL-SFN injections in mice. It counts as in vivo, mouse. The conditions noted are these: 7.5 mM DL-SFN, 200 μL intraperitoneally every other day for five weeks. The method, then: Analysis of SFN on mice was performed using a protocol similar to that described elsewhere (Kong et al., Arthritis Rheum., 62:159-170 (2010)). In the experimental setting herein, eight week old sham operated or ovariectomized (OVX) C57B16/J female mice were purchased from Charles River laboratories. Mice were injected with 7.5 mM DL-SFN (200 μL of SFN at a concentration of 63.8 mg/mL/kg dissolved in ethanol and further diluted in PBS) intraperitoneally every other day for five weeks. Control mice received vehicle alone.

Take `CC[C@H](C)n1cc(C)c2c(C(=O)NCc3c(C)cc(C)[nH]c3=O)cc(-c3ccc(N4CCNCC4)nc3)cc21` [GSK126, N-[(1,2-dihydro-4,6-dimethyl-2-oxo-3-pyridinyl)methyl]-3-methyl-1-[(1S)-1-methylpropyl]-6-[6-(1-piperazinyl)-3-pyridinyl]-1H-indole-4-carboxamide]: in data set [1] (adult mice, 50 mg/kg daily for 5 weeks, in words), the cortical bone parameters entry is “increased”. Moreover, in data set [1] (15 mg/kg), the “Ct. TV” value was determined as 1.184 mm^3, the Tb.N is given as 3.850 mm^−1, the Tb.Sp turned out to be 0.267 mm and the Tb.Th was found to be 0.040 mm. Moreover, in data set [1] (15 mg/kg), the “Ct. Ar” value was found to be 0.719 mm^2, the “Ct. BV” value was found to be 0.509 mm^3, the “Ct. Mat.M.Dn” value turned out to be 1235 mgHA/cm^3 and the “Ct. Th” value is given as 0.171 mm. Further, in data set [1] (15 mg/kg), the “Ec. Ar” value is 0.955 mm^2 and the Ps.Ar is on record as 1.675 mm^2. In addition, in data set [1] (50 mg/kg), the “Ct. TV” value was found to be 1.243 mm^3, the Tb.N worked out at 4.053 mm^−1, the Tb.Sp came out at 0.252 mm and the Tb.Th stood at 0.043 mm. Moreover, in data set [1] (50 mg/kg), the “Ct. Ar” value was 0.753 mm^2, the “Ct. BV” value stood at 0.532 mm^3, the “Ct. Mat.M.Dn” value is listed as 1238 mgHA/cm^3 and the “Ct. Th” value is 0.175 mm. Also, in data set [1] (50 mg/kg), the “Ec. Ar” value is given as 1.006 mm^2 and the Ps.Ar worked out at 1.758 mm^2. The “deposition of H3K27me3 marks near transcriptional start sites (TSSs) across the genome” value in data set [2] is “decreased”.
On to `C[S+]([O-])CCCCN=C=S` (racemic) [DL-SFN], for which, in data set [3], the “Bglap2 mRNA expression” value is given as “up regulated”. In addition, the “Runx2 mRNA expression” value in data set [3] (3 μM) is “stimulates”. Besides, in data set [4], the “apparent adverse effects (weight loss, physical appearance, behavior)” value is “did not show apparent adverse effects”.
